Data set [1] deals with CYP3A4 (Homo sapiens (Human), UniProt P08684). Description: Cytochrome P450 inhibition assay, recombinant CYP3A4 (BFC substrate). Type of data set: in vitro ADME. The conditions noted are these: recombinant enzyme.
Data set [2] has as its target CYP2D6 (Homo sapiens (Human), UniProt P10635). Description: Cytochrome P450 inhibition assay, recombinant CYP2D6 (MAMC substrate). Type of data set: in vitro ADME. The settings on record: recombinant enzyme.
For data set [3], the target named is human dopamine transporter (Homo sapiens (Human), UniProt Q01959). Description: Human DAT (dopamine transporter) uptake assay. Format: cell-based. The conditions noted are these: read-out: hDAT Ki. An outline of the steps:
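Uptake inhibition was measured in HEK293F cells transfected with human DAT, plated at ~60,000 cells/well and settled ≥3 h at 37 °C. Compounds came from 10 mM DMSO stocks. Read-out was uptake of a fluorescent neurotransmitter transporter dye in HBSS with 0.02 M HEPES, with dye level given as % of vendor reconstitution; n=3.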

The nature of data set [4]: pKa of basic centres (Table 1). The conditions noted are these: first base, e.g., an aliphatic primary, secondary, or tertiary amine; read-out: pKa (Base 1). Type of data set: physicochemical.
The target in data set [5] is hERG (Homo sapiens (Human), UniProt Q12809). Description: Human ERG (hERG) assay, hERG currents in hERG-expressing CHO cells. Type of data set: cell-based. The settings on record: hERG-expressing CHO cells. From the text:
The voltage-dependent potassium channel encoded by the human ether-a-go-go-related gene (hERG) is believed to play a key role in repolarisation of the ventricular cardiac action potential. Changes in its activity, caused either by inherited mutations of the gene sequence or pharmacological modification, can lead to prolongation of action potential duration. This can lead to prolongation of the QT interval recorded in man on an electrocardiogram and to a potentially fatal cardiac arrhythmia known as Torsades de Pointes.
hERG currents were recorded from hERG-expressing CHO cells. The biophysical and pharmacological characterization of the hERG currents in these cells was performed.
(hERG is a cardiac potassium channel; its block is linked to QT prolongation.)

The target of data set [6] is human norepinephrine transporter (Homo sapiens (Human), UniProt P23975). Nature of the data set: Human NET (norepinephrine transporter) uptake assay. Format: cell-based. The conditions noted are these: read-out: hNET Ki. An outline of the steps: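 HEK293F cells transfected with human NET were thawed, plated at about 60,000 cells/well and held at 37 °C for at least 3 h. Compounds came from 10 mM DMSO stocks, with nomifensine as control, in 1×HBSS/0.02 M HEPES. Uptake was followed with a neurotransmitter transporter dye, dosed as % of vendor reconstitution, in triplicate.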

Data set [7] addresses human serotonin transporter (Homo sapiens (Human), UniProt P31645). Nature of the data set: Human SERT (serotonin transporter) uptake assay. Type of data set: cell-based. The settings on record: read-out: hSERT Ki. An outline of the steps: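 HEK293F cells transfected with human SERT, about 60,000 per well, settled for ≥3 h at 37° C before compound addition. Uptake was followed with a fluorescent transporter dye in HBSS with 0.02 M HEPES. Background came from 10 μM fluoxetine, nomifensine was the control, n=3.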

CYP2D6, sequence (P10635 whole entry): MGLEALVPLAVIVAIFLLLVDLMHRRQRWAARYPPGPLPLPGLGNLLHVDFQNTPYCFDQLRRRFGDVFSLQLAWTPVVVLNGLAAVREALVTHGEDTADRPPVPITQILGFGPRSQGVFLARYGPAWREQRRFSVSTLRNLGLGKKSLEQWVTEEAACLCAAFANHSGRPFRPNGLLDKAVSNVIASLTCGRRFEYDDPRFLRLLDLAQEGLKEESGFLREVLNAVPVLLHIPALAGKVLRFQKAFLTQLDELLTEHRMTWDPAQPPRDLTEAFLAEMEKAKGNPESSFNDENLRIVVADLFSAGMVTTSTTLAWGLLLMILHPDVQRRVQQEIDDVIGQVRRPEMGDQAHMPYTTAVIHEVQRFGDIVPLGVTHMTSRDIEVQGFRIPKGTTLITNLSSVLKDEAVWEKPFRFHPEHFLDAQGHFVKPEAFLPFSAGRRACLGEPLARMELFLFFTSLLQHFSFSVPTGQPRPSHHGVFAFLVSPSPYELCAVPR
human dopamine transporter, sequence (Q01959 whole entry): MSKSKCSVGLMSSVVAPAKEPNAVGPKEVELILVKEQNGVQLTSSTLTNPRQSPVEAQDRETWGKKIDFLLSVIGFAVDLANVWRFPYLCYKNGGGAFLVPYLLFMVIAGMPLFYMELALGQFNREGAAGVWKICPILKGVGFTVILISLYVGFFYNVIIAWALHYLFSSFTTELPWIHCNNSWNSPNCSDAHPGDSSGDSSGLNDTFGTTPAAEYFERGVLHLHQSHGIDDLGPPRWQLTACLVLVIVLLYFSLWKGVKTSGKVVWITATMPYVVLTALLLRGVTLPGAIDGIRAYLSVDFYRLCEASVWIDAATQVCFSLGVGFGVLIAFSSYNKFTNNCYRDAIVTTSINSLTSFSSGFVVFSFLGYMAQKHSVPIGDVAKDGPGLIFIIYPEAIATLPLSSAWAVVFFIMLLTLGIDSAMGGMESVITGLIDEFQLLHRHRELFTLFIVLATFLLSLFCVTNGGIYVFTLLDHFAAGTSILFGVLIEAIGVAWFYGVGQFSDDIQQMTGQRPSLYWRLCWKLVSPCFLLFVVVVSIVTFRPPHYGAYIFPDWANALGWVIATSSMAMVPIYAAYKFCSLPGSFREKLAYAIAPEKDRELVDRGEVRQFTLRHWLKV
CYP3A4, sequence (P08684 whole entry): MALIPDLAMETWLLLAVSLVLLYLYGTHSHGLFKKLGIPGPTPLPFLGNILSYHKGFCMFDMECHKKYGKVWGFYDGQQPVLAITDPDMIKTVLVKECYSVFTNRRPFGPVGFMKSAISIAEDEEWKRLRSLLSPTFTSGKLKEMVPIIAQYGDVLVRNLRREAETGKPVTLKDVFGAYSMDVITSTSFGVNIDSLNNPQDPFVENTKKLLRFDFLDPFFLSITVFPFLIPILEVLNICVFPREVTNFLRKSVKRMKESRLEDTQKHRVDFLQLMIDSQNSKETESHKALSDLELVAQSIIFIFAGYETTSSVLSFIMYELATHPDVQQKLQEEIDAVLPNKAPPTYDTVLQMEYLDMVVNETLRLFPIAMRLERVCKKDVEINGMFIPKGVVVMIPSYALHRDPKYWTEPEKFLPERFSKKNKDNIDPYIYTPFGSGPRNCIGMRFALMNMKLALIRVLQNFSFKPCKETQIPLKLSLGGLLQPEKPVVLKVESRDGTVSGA
hERG, sequence (Q12809 whole entry): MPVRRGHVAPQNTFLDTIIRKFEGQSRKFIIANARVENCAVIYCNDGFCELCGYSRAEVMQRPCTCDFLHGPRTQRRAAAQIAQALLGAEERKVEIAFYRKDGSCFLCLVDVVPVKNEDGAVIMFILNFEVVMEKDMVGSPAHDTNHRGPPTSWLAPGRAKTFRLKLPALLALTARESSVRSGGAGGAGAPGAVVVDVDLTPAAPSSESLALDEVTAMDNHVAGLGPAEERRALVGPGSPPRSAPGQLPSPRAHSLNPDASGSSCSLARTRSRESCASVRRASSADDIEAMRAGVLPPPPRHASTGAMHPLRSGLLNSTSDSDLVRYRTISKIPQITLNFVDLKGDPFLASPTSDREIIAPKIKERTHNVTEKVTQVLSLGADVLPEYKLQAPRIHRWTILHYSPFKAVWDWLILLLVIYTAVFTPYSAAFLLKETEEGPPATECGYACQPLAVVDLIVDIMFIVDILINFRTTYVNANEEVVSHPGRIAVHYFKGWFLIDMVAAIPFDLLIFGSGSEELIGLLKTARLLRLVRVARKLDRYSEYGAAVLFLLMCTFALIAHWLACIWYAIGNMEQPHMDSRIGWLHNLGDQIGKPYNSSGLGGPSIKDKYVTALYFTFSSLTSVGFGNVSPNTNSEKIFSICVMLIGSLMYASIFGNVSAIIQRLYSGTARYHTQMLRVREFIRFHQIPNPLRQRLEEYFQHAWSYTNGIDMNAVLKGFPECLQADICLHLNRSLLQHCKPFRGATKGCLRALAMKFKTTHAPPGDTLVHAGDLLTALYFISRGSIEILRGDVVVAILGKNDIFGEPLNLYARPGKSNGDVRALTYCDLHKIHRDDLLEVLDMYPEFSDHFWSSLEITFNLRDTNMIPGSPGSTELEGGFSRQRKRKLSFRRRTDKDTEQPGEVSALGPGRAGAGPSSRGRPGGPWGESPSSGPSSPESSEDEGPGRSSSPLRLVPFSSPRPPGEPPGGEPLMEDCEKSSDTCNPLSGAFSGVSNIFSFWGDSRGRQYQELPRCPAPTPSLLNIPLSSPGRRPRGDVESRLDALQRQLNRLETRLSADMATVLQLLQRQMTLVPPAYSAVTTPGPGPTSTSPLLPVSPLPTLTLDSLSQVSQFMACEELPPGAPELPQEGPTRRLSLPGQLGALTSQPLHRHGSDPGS
human norepinephrine transporter, sequence (P23975 whole entry): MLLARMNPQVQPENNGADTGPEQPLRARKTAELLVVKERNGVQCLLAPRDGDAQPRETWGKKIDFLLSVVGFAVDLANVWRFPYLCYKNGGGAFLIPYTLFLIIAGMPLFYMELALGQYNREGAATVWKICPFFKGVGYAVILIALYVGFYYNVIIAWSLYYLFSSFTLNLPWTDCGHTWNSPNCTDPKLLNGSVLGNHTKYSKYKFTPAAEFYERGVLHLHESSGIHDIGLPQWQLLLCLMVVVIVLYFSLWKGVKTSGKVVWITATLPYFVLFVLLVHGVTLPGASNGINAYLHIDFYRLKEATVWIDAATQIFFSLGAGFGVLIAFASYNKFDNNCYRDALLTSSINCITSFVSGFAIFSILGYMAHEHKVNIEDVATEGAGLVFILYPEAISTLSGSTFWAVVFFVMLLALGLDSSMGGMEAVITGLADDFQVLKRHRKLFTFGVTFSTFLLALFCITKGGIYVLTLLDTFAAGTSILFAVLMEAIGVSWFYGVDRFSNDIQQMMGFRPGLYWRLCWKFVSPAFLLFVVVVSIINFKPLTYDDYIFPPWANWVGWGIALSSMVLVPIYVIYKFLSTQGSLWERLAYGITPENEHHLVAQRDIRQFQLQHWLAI
human serotonin transporter, sequence (P31645 whole entry): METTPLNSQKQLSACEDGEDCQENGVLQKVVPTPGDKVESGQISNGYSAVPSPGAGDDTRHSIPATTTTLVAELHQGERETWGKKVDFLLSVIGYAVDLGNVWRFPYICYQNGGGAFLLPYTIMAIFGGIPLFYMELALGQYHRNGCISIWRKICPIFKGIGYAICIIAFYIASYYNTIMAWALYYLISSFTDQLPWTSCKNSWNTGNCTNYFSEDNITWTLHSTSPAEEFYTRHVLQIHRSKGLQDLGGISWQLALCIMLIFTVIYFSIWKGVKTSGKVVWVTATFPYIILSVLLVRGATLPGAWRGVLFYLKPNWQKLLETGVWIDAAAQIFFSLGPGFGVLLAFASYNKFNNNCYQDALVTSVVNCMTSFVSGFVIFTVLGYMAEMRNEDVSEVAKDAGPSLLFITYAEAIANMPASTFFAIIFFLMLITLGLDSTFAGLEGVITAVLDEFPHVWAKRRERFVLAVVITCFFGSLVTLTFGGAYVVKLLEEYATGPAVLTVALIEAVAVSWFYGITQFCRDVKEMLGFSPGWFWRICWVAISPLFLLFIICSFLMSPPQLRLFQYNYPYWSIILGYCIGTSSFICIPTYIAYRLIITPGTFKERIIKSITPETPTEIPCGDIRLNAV

Take `CNC[C@H](c1ccc(Cl)c(Cl)c1)[C@H](O)c1cccc(I)c1` (single isomer, unassigned) [Compound 151]: the IC50 (as a rule, the midpoint of a concentration-inhibition curve) in data set [1] was determined as 2100 nM; in data set [2], 130 nM; in data set [5], 3800 nM. The Ki (commonly the dissociation constant of the complex between target and ligand, obtained from inhibition or displacement) in data set [3] is 31.4 nM; in data set [6], 20.4 nM; in data set [7], 45.2 nM. Moreover, the pKa (commonly the negative logarithm of the acid dissociation constant) in data set [4] amounted to 9.4.
As for `CNC[C@H](c1ccc2ccccc2c1)[C@H](OCC(N)=O)c1ccccc1` [Compound 3], the IC50 was found to be 20000 nM in data set [1], 1300 nM in data set [2] and 33000 nM in data set [5]. For the same compound, the Ki turned out to be 5.2 nM in data set [3], 1.3 nM in data set [6] and 0.6 nM in data set [7]. Further, the pKa in data set [4] was 9.6.
Regarding `CNC[C@@H](Cc1ccccc1)c1ccc2ccccc2c1` [Compound 5], the IC50 was 18000 nM in data set [1], 240 nM in data set [2] and 6500 nM in data set [5]. Further, the Ki in data set [3] worked out at 10.1 nM; in data set [6] it was 1.4 nM; in data set [7], 2.8 nM. Besides, the pKa in data set [4] amounted to 10.1.
On to `CNC[C@H](c1ccc2ccccc2c1)[C@H](F)c1ccccc1` [Compound 9], for which the IC50 in data set [1] turned out to be 8600 nM; in data set [2], 210 nM; in data set [5] it was 9500 nM. Also, the Ki in data set [3] is 42.3 nM; in data set [6], 1.5 nM; in data set [7] it was 5.7 nM. Further, the pKa in data set [4] amounted to 9.4.
Take `CNC[C@H](c1ccc(Cl)c(Cl)c1)[C@H](O)c1ccccc1` [Compound 10]: the values for the IC50 in data set [1], in data set [2] and in data set [5] were 20000 nM, 120 nM and 9100 nM, respectively. Also, the results for the Ki in data set [3], in data set [6] and in data set [7] were 7.3 nM, 1.5 nM and 11.7 nM, respectively. In addition, the pKa in data set [4] worked out at 9.4.
Regarding `CNC[C@H](c1ccc2ccccc2c1)[C@@H](F)c1ccccc1` [Compound 11], the IC50 in data set [1] amounted to 6700 nM; in data set [2], 96 nM; in data set [5], 11000 nM. In addition, the Ki in data set [3] was found to be 11.1 nM; in data set [6], 1.6 nM; in data set [7], 4.2 nM. Also, the pKa in data set [4] worked out at 9.4.
In the case of `CNC[C@H](c1ccc2ccccc2c1)[C@H](OCC(=O)NC1CC1)c1ccccc1` [Compound 13], the IC50 turned out to be 17000 nM in data set [1], 400 nM in data set [2] and 19000 nM in data set [5]. For the same compound, the Ki in data set [3] amounted to 19.7 nM; in data set [6] it was 1.6 nM; in data set [7], 5.4 nM. Moreover, in data set [4], the pKa was determined as 9.6.
Turning to `CNC[C@H](c1ccc2ccccc2c1)[C@H](OCC(=O)NCCO)c1ccccc1` [Compound 14], the IC50 in data set [1] was 20000 nM; in data set [2], 3700 nM; in data set [5], 33000 nM. In addition, the Ki in data set [3] is 79.3 nM; in data set [6] it was 1.6 nM; in data set [7] it was 3.1 nM. Also, the pKa in data set [4] was 9.6.
Turning to `CNC[C@H](c1ccc2ccccc2c1)[C@H](O)c1ccccc1F` [Compound 15], the IC50 was determined as 20000 nM in data set [1], 200 nM in data set [2] and 12000 nM in data set [5]. For the same compound, the Ki in data set [3] was determined as 42.5 nM; in data set [6], 1.7 nM; in data set [7], 2.4 nM. In data set [4], the pKa stood at 9.7.
In the case of `CNCC(c1ccc(Br)c(Cl)c1)[C@H](O)c1ccccc1` (some centres unmarked) [Compound 16], the results for the IC50 in data set [1], in data set [2] and in data set [5] were 19000 nM, 230 nM and 5000 nM, respectively. Moreover, the values for the Ki in data set [3], in data set [6] and in data set [7] were 6.6 nM, 1.8 nM and 6.3 nM, respectively. Moreover, the pKa in data set [4] was 9.4.
Consider `CNC[C@H](c1ccc2ccccc2c1)[C@H](OCC(=O)N1CC[C@H](O)C1)c1ccccc1` [Compound 19], for which the IC50 is 20000 nM in data set [1], 20000 nM in data set [2] and 33000 nM in data set [5]. Besides, the inhibition constant Ki in data set [3] worked out at 17 nM; in data set [6], 1.9 nM; in data set [7], 4.3 nM. Besides, in data set [4], the pKa was 9.6.

The record behind these values is patent US9944618B2, “Inhibiting neurotransmitter reuptake” (Mayo Foundation for Medical Education and Research, priority 2013, dated 2018).
